Consider 8 compounds from patent US12037350B2, “Compositions and methods for the prevention and/or treatment of mitochondrial disease, including Friedreich's ataxia” (Stealth BioTherapeutics Inc., priority 2020, dated 2024).

Test [1] relates to frataxin deficient fibroblasts (GM03665) from Friedreich's ataxia patient. Kind of test: Frataxin Deficient Fibroblast Viability Assay (BSO Assay). The test is classed as cell-based. To be noted: for EC50: Homo sapiens, Fibroblast, FA patient fibroblasts pretreated with compound, BSO 10 mM, MTT after 48 hrs. On the procedure: Example 12: Frataxin Deficient Fibroblast Viability Assay (the “BSO Assay”)
This Example was used to evaluate the various new compositions for their potential efficacy in the treatment of Friedreich's Ataxia (FA or FRDA)—substantially as described in the above cited Reference (Matthias et al.).
The stock solutions of the test articles (and control compounds) were prepared in dimethyl sulfoxide (DMSO at 10 mM), Working stock solutions (2 times concentrated) were prepared on the day of the experiment in respective cell culture medium to be used for assay (detailed medium description below). A listing of compounds used as test articles in this Example 12 are found in Table 1, below.
A patient derived frataxin deficient fibroblast cell line was obtained from Coriell Institute. More specifically, the following cell lines/DNA samples were obtained from the NIGMS Human Genetic Cell Repository at the Coriell Institute for Medical Research: GM03665. To evaluate importance of various growth conditions on cell susceptibility to BSO toxicity cells were grown on:
MEM (Sigma-Aldrich) 15% Fetal Bovine Serum (FBS) without growth factors;
MEM (Sigma-Aldrich) 15% FBS with growth factors (Catalogue number 100-18B, Recombinant Human FGF-basic (154 a.a.) and catalogue number AF-100-15, Animal-Free Recombinant Human EGF from Peprotech);
MEM199/MEM EBS (Bioconcept Ltd.) 10% FBS, insulin 10 μg/ml, L-glutamine 2 mM with growth factors (Catalogue number 100-18B, Recombinant Human FGF-basic (154 a.a.) and catalogue number AF-100-15, Animal-Free Recombinant Human EGF from Peprotech).
To conduct an experiment, fibroblast cells (from all growth conditions) were seeded (100 μL (cells 3×10^3/well) on 96-well plates in MEM199/MEM EBS medium 10% FBS, insulin 10 μg/mL, L-glutamine 2 mM with growth factors and allowed to grow on plate for 24 hrs. After 24 hrs., media was removed and then test compounds of interest were added (100 μL, 2 times concentrated stock) to 96-well plates (end DM80 concentration not exceeding 0.5%) and incubated for 24 hours. Then L-buthionine-sulfoximine (BSO, from Acros Organics, Cat. No. 235520010) was added (100 μL, 2 times concentrated stock) at end concentrations ranging from 1 to 10 mM. Both test compounds and BSO were dissolved in MEM199/MEM EBS medium 10% FBS, insulin 10 μg/mL, L-glutamine 2 mM with growth factors. Cell viability was monitored and either after 24- or 48-hours cell viability was assayed by MTT (Thiazolyl blue tetrazolium bromide) assay. For the MTT assay, media was removed and 100 μL of MTT 1 mg/mL was added, incubated for 2 hours at +37° C., then medium was removed and 100 μL of isopropanol added to dissolve sediment. Absorption was measured at 570 (OD570) and 650 (QD650) nm wavelengths. Control cells (vehicle instead of BSO and compound) and vehicle control (with BSO, but vehicle instead of test compound) were treated in the same manner as ceils with BSO and compound. All cell media contained penicillin and streptomycin 100 U/mL each.
Absorption readouts were processed as follows: ValueΔ=ValueOD570−ValueOD650 and the obtained values were used to calculate cell viability as % of control cell (i.e., no BSO, no compound, just vehicle) viability.
Except as otherwise indicated in Table 1, all samples were run in at least 3 replicates for test compounds and at least 8 replicates for controls (i.e., both control (no BSO, no compound) and vehicle control (i.e., with BSO, no compound). Exact N per data points are indicated in the figures/table legends. Results for the compounds (test articles and controls) tested are listed in Table 1, below.
This is a cell-based assay measuring cytotoxicity which results from oxidative stress subsequent to depletion of endogenous glutathione defense mechanisms. The cells were primary Friedreich Ataxia (FA) patient fibroblasts which were incubated for 48 hrs. in BSO, an inhibitor of gamma glutamyl synthetase, an enzyme required for glutathione production. […]

For the next test, the system named is HepG2 cells. Kind of test: Rotenone Oxygraph Assay (high-resolution respirometry of intact HepG2 cells). It counts as cell-based, human. The conditions noted are these: Homo sapiens; intact HepG2 cells, rotenone 1 μM, compound 10 μM, increase in respiration rate. On the procedure:
Example 15: Rotenone Oxygraph Assay (High-Resolution Respirometry of Intact HepG2 Cells)
The Oxygraph-2k (O2k, OROBOROS INSTRUMENTS, Austria) was used for measurements of respiration of intact cells. The respirometry was performed in Dulbecco's Modified Eagle Medium (DMEM) high glucose without supplements. All experiments were performed at 37° C.
HepG2 cells (ATCC collection code HB-8065™) were cultured in 10 cm^2 culture dishes in DMEM high glucose medium supplemented with 10% fetal bovine serum (FBS) and 100 units/mL penicillin and 100 μg/mL streptomycin until approximately 90% confluence was reached. Immediately prior to performing the respirometric assay, the cells were washed with media without FBS, trypsinized and resuspended in DMEM high glucose without FBS.
The final concentration of intact cells in the O2k-chamber was 0.5-10^6/mL. After stabilization of respiration, the Complex I inhibitor, rotenone, at 1 μM final concentration was added to inhibit electron flux via Complex I. Then, compound to be tested was added at 10 μM final concentration, and the change in respiration rate of intact cells was monitored. […]

In test [2] the test system is GM03665 cells (fibroblasts from a subject with Friedreich's ataxia). Description: RSL-3 Toxicity Assay (RSL-3 Assay). The conditions noted are these: Homo sapiens, Fibroblast; GM03665 cells, RSL-3 2 μM, 24 hours, MTT. It counts as cell-based, human. The source says:
Example 14: RSL-3 Toxicity Assay (RSL-3 Assay)
This assay has been adapted from: Hinman, A., Holst, C. R., Latham, J. C., Bruegger, J. J., Ulas, G., McCusker, K. P., Amagata, A., Davis, D., Hoff, K. G., Kahn-Kirby, A. H., Kim, V., Kosaka, Y., Lee, E., Malone, S. A., Mei, J. J., Richards, S. J., Rivera, V., Miller, G., Trimmer, J. K., Shrader, W. D., “Vitamin E hydroquinone is an endogenous regulator of ferroptosis via redox control of 15-lipoxygenase”, (2018) PLoS ONE 13(8): e0201369.
In brief, GM03665 cells (Coriell Institute) were seeded in 96-well plates (Sarstedt) in DMEM cell culture media containing 10% Fetal Bovine serum and 1% Penicillin-Streptomycin (Pen-Strep) antibiotic mix at the amount of 2×10^4/mL (100 μL or 2×10^3 cells per well). Cells were left to rest overnight at 37° C. in a humidified atmosphere with 5% CO2 to allow attachment of the cells to the culture plate. Test compounds were prepared as DMSO stocks (10 mM) and were serially diluted in cell culture media to obtain 2× working solutions. Cell media was discarded and replaced by 50 μL of test compound solutions or cell media with vehicle for control wells. Within 15 minutes, 2× working solution (4 μM) of 1S,3R-RSL-3 (CAS #1219810-16-8, Sigma-Aldrich) (diluted from 5 mM DMSO stock in cell culture media) was added. Final reaction volume was 100 μL and final DMSO concentration in reaction was kept below 0.2% (v/v) and equal in all wells. Final RSL-3 concentration was 2 μM and test compound final concentrations in reaction were up to 1000 nM. After 24 hours of incubation cell viability was assessed by MTT test. MTT (Sigma-Aldrich) solution 1 mg/mL in IX PBS (pH=7.4) was prepared 1 hour before the assay and filtered through Filtropur S 0.2 filters (Sarstedt). Cell media with test compounds was discarded and 100 μL of MTT solution was added to cells. The plates were incubated for 2 hours at +37° C. Thereafter, the MTT solution was removed and 100 μL of isopropanol was added to dissolve sediment. Absorption at 570 and 650 nm was measured using Hidex Sense microplate reader.
Compounds A and B and idebenone were not examined in this assay. The data presented in Table 1 indicates omaveloxolone was not active in this assay but that vatiquinone was active.
Discussion—Both BSO and RSL-3 are frequently utilized to induce the regulated cell death pathway known as ferroptosis. Ferroptosis is thought to require the joint activity of iron catalyzed oxidative stress and lipid peroxidation and has been described in cell and animal models of multiple neurodegenerative diseases, including Friedreich's Ataxia, Huntington Disease, Parkinson Disease and Alzheimer's Disease. […] Of note, the results for Compounds C-I and K were favorable with respect to inhibition of ferroptotic cell death when either BSO or RSL3 were used as initiating stimulus, differentiating these compounds from omaveloxolone and idebenone.

A word on the EC50: it is the concentration that produces a half-maximal response. `CCCCCCCC1=C(C)C(=O)C(OC)=C(OC)C1=O` [Compound H, 2-heptyl-5,6-dimethoxy-3-methylcyclohexa-2,5-diene-1,4-dione]: the values for the EC50 in test [1] and in test [2] were 241 nM and 56 nM, respectively. This compound had an activation at 10 µM in the test with HepG2 cells of 41.8%.
Regarding `COC1=C(OC)C(=O)C(CCCCCC(F)F)=C(C)C1=O` [Compound F, 2-(6,6-difluorohexyl)-5,6-dimethoxy-3-methylcyclohexa-2,5-diene-1,4-dione], the 50% effective concentration (EC50) in test [1] was 689 nM; in test [2] it was 146 nM. Besides, the activation at 10 µM in the test on HepG2 cells was 44.7%.
On to `CC1=C(C)C(=O)C(C/C=C(\C)CC/C=C(\C)CCC=C(F)F)=C(C)C1=O` [Compound A, 2-((2E,6E)-11,11-difluoro-3,7-dimethylundeca-2,6,10-trien-1-yl)-3,5,6-trimethylcyclohexa-2,5-diene-1,4-dione], for which the “protection against BSO induced cell death (in words)” value in test [1] (BSO Assay, text statement) is listed as “best of the test compounds”. Also, the EC50 in test [1] was 67.1 nM.
For the compound `COC1=C(OC)C(=O)C(CCCCCC(F)(F)F)=C(C)C1=O` [Compound E, 2,3-dimethoxy-5-methyl-6-(6,6,6-trifluorohexyl)cyclohexa-2,5-diene-1,4-dione], the values for the EC50 in test [1] and in test [2] were 359 nM and 135 nM, respectively. Further, the activation at 10 µM with HepG2 cells was found to be 49%.
On the same counts, the results for `COC1=C(OC)C(=O)C(CCCC(F)(F)F)=C(C)C1=O` [Compound I, 2,3-dimethoxy-5-methyl-6-(4,4,4-trifluorobutyl)cyclohexa-2,5-diene-1,4-dione] are 772 nM, 479 nM and 37.8%.
On the same counts, the results for `CCCCCCCCCCC1=C(C)C(=O)C(OC)=C(OC)C1=O` [Compound D, reference compound] are 159 nM, 70 nM and 30%.
Turning to `COC1=C(OC)C(=O)C(CCC[Si](C)(C)C)=C(C)C1=O` [Compound K, 2,3-dimethoxy-5-methyl-6-(3-(trimethylsilyl)propyl)cyclohexa-2,5-diene-1,4-dione], in the test with HepG2 cells, the activation at 10 µM was determined as 41.4%. Besides, the EC50 in test [2] came out at 75 nM.
For `COC1=C(OC)C(=O)C(CCCCCCF)=C(C)C1=O` [Compound G, 2-(6-fluorohexyl)-5,6-dimethoxy-3-methylcyclohexa-2,5-diene-1,4-dione], the concentration for a half-maximal effect (EC50) came to 555 nM in test [1] and 205 nM in test [2]. In addition, the activation at 10 µM in the test on HepG2 cells is 42.7%.
